Earlier results on one molecule are cited in patent publication US9376364B2, “Acid/salt separation” (PURAC BIOCHEM B.V., priority 2011, dated 2016).

The conditions of this data set: at 20 Celsius.

SMILES strings stand for the structures.

Take `[Cl-].[Cl-].[Mg+2]` [MgCl2, magnesium chloride]: the “saturation point of MgCl2 in water” value was 55 g/100 g water.
